Measurements: patent US8673652B2, “Immunoassay with extended detection window” (priority 2010, dated 2014)
In brackets after ≈: the same amount, converted by molar mass.

Columns and labels:
[1] = test system: polyclonal antibody raised against zolpidem analogue derivatised at the 4'-phenyl ring coupled to BTG; assay: Competitive ELISA for zolpidem (antibody specificity and sensitivity); format: binding, sheep; settings: for IC50 (ng/ml) / IC50: competitive ELISA, hapten-HRP conjugate, absorbance at 450 nm; for % CR = percentage cross-reactivity based on 100% specificity to zolpidem: relative to zolpidem = 100%
Procedure: Analogues of zolpidem derivatised at the 4′-phenyl ring were coupled by way of a crosslinker to bovine thyroglobulin (BTG). The resulting immunogens were administered separately to adult sheep on a monthly basis to provide target-specific polyclonal antisera. IgG was extracted from the antisera via caprylic acid/ammonium sulphate precipitation of immunoglobulin. Microtitre plates were coated with antibody (125 μl/well) in coating buffer (10 mM Tris pH 8.5) at 37° C. for 2 h. The plates were then washed 4 times over 10 mins with working strength TBST. 50 μl of sample/standard (zolpidem, Sequioa SRP00500z; alpidem, TRC A575560; zaleplon, Sequioa SRP00300z; zopiclone, Sequioa SRP02000z; zolpidem Carboxylic Acid, Randox LK865 and zolpidem carboxylic acid, Randox LK855) was added to the appropriate wells in triplicate, followed by 75 μl of hapten-HRP conjugate and incubated at 25° C. for 1 h. The plates were then washed and 125 μl of TMB (Randox, 4380-15) was added to each well and left at room temperature for 20 mins in the dark. The reaction was stopped using 125 μl of 0.2M sulphuric acid. The absorbances were read at 450 nm with an ELISA microplate reader (BIO-TEK Instruments, Elx800) and the means calculated. Antibody specificity and sensitivity were then determined.
Competitive ELISA results in Table 1 and FIG. 3 highlight the specificity of the antibody of the disclosure towards zolpidem and cross-reactivity towards 4-[3-(2-N,N-dimethylamino-2-oxoethyl)-6-methylimidazo[1,2-a]pyridin-2-yl]benzoic acid. […] The disclosure, through its unique immunogens and antibodies, thus enables methods and kits able to detect and determine zolpidem and/or 4-[3-(2-N,N-dimethylamino-2-oxoethyl)-6-methylimidazo[1,2-a]pyridin-2-yl]benzoic acid with high sensitivity.

[2] = cited from earlier work

| SMILES | IC50 (ng/ml) [1] | % CR = percentage cross-reactivity based on 100% specificity to zolpidem [1] | IC50 [1] | share of metabolite produced by cytochrome P450 mediated metabolism of zolpidem ([2]; metabolism mediated by cytochrome P450) | half-life ([2]; upon ingestion) |
| --- | --- | --- | --- | --- | --- |
| CCCN(CCC)C(=O)Cc1c(-c2ccc(Cl)cc2)nc2ccc(Cl)cn12 [Alpidem, alpidem] | >>50 ng/ml | <<1.26% | – | – | – |
| Cc1ccc2nc(-c3ccc(C(=O)O)cc3)c(CC(=O)N(C)C)n2c1 [Hapten M1, 4-[3-(2-N,N-dimethylamino-2-oxoethyl)-6-methylimidazo[1,2-a]pyridin-2-yl]benzoic acid] | – | 18.6% | 3.33 ng/mL (≈ 9.87 nM) | more than 80% | – |
| Cc1ccc(-c2nc3ccc(C(=O)O)cn3c2CC(=O)N(C)C)cc1 [Hapten M2, 3-(2-N,N-dimethylamino-2-oxoethyl)-2-(4-methylphenyl)imidazo[1,2-a]pyridin-6-yl carboxylic acid] | – | <0.13% | >500 ng/mL | – | – |
| CCN(C(C)=O)c1cccc(-c2ccnc3c(C#N)cnn23)c1 [Zaleplon, zaleplon] | >>50 ng/ml | <<1.26% | – | – | – |
| Cc1ccc(-c2nc3ccc(C)cn3c2CC(=O)N(C)C)cc1 [Zolpidem, N,N-dimethyl-2-[6-methyl-2-(4-methylphenyl)imidazo[1,2-a]pyridin-3-yl]acetamide] | – | 100% | 0.63 ng/mL (≈ 2.05 nM) | – | 1.5 to 3 h |
| CN1CCN(C(=O)OC2c3nccnc3C(=O)N2c2ccc(Cl)cn2)CC1 (centres unmarked) [Zopiclone, zopiclone] | >>50 ng/ml | <<1.26% | – | – | – |
